Assay results taken from US20230111310A1, “CARBOXYLIC ACID DERIVATIVE-SUBSTITUTED IMINO ARYL COMPOUND, PREPARATION METHOD THEREFOR, HERBICIDAL COMPOSITION AND USE THEREOF” (Qingdao Kingagroot Chemical Compound Co., Ltd., priority 2020, published 2023).

Legend:
Assay in all cases: Weeding effect in post-emergence stage
Assay type in all cases: in vivo
Abutilon theophrasti = settings: for Weeding effect in post-emergence stage, Abutilon theophrasti: level of fresh weight growth control rate
In short: (§1)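 Weeds were treated post-emergence at 2-3 leaves with compound doses from 7.5 up to 500 g/ha, formulated in acetone–Tween 80 with methyl oleate synergist. Efficacy was assessed as growth control after 3 weeks.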

Alopecurus japonicus = settings: for Weeding effect in post-emergence stage, Alopecurus japonicus: level of fresh weight growth control rate
In short: as §1

Digitaria sanguinalis = settings: for Weeding effect in post-emergence stage, Digitaria sanguinalis: level of fresh weight growth control rate
In short: as §1

Eleusine indica = settings: for Weeding effect in post-emergence stage, Eleusine indica: level of fresh weight growth control rate
In short: as §1

Setaria viridis = settings: for Weeding effect in post-emergence stage, Setaria viridis: level of fresh weight growth control rate
In short: as §1

Echinochloa crusgalli = settings: for Weeding effect in post-emergence stage, Echinochloa crusgalli: level of fresh weight growth control rate
In short: as §1

[1] = Dose 15 g/ha, fresh weight control rate level

Compound | Weeding effect in post-emergence stage, Abutilon theophrasti (Abutilon theophrasti; Dose 30 g/ha) | Weeding effect in post-emergence stage, Alopecurus japonicus (Alopecurus japonicus; Dose 30 g/ha) | Weeding effect in post-emergence stage, Digitaria sanguinalis (Digitaria sanguinalis; Dose 30 g/ha) | Weeding effect in post-emergence stage, Eleusine indica (Eleusine indica; Dose 30 g/ha) | Weeding effect in post-emergence stage, Setaria viridis (Setaria viridis; Dose 30 g/ha) | Weeding effect in post-emergence stage, Echinochloa crusgalli (Echinochloa crusgalli; Dose 30 g/ha) | Weeding effect in post-emergence stage, Abutilon theophrasti (Abutilon theophrasti; Dose 15 g/ha) | Weeding effect in post-emergence stage, Alopecurus japonicus (Alopecurus japonicus; Dose 15 g/ha) | Weeding effect in post-emergence stage, Digitaria sanguinalis (Digitaria sanguinalis; Dose 15 g/ha) | Weeding effect in post-emergence stage, Eleusine indica (Eleusine indica; Dose 15 g/ha) | Weeding effect in post-emergence stage, Setaria viridis (Setaria viridis; Dose 15 g/ha) | Weeding effect in post-emergence stage, Echinochloa crusgalli (Echinochloa crusgalli; Dose 15 g/ha) | also measured
CC(O/N=C/c1cc(-n2c(=O)cc(C(F)(F)F)n(C)c2=O)c(F)cc1Cl)C(=O)O/N=C/c1ccccc1 (stereo not drawn) [Compound 255] | 5 (Level 5: growth control rate is above 85%) | 5 (Level 5: growth control rate is above 85%) | 5 (Level 5: growth control rate is above 85%) | 5 (Level 5: growth control rate is above 85%) | 5 (Level 5: growth control rate is above 85%) | 5 (Level 5: growth control rate is above 85%) | – | – | – | – | – | – | –
COC(=O)CCNC(=O)[C@@H](C)O/N=C/c1cc(-n2c(=O)cc(C(F)(F)F)n(C)c2=O)c(F)cc1Cl [416(R)] | – | – | – | – | – | – | – | – | – | – | – | – | Weeding effect in post-emergence stage, Abutilon theophrasti (level) (Abutilon theophrasti; [1]): 5 (Level 5: growth control rate is above 85%); Weeding effect in post-emergence stage, Alopecurus japonicus (level) (Alopecurus japonicus; [1]): 5 (Level 5: growth control rate is above 85%); Weeding effect in post-emergence stage, Digitaria sanguinalis (level) (Digitaria sanguinalis; [1]): 5 (Level 5: growth control rate is above 85%); Weeding effect in post-emergence stage, Eleusine indica (level) (Eleusine indica; [1]): 5 (Level 5: growth control rate is above 85%); Weeding effect in post-emergence stage, Setaria viridis (level) (Setaria viridis; [1]): 5 (Level 5: growth control rate is above 85%); Weeding effect in post-emergence stage, Echinochloa crusgalli (level) (Echinochloa crusgalli; [1]): 5 (Level 5: growth control rate is above 85%)
CC(C)=NOCCOC(=O)[C@@H](C)O/N=C/c1cc(-n2c(=O)cc(C(F)(F)F)n(C)c2=O)c(F)cc1Cl [259(R)] | 5 (Level 5: growth control rate is above 85%) | 5 (Level 5: growth control rate is above 85%) | 5 (Level 5: growth control rate is above 85%) | 5 (Level 5: growth control rate is above 85%) | 5 (Level 5: growth control rate is above 85%) | 5 (Level 5: growth control rate is above 85%) | – | – | – | – | – | – | –
COC(=O)[C@H](O/N=C/c1cc(-n2c(=O)cc(C(F)(F)F)n(C)c2=O)c(F)cc1Cl)C(C)C [318(R)] | – | – | – | – | – | – | 5 (Level 5: growth control rate is above 85%) | 5 (Level 5: growth control rate is above 85%) | 5 (Level 5: growth control rate is above 85%) | 5 (Level 5: growth control rate is above 85%) | 5 (Level 5: growth control rate is above 85%) | 5 (Level 5: growth control rate is above 85%) | –
COC(=O)C(C)OC(=O)C(C)O/N=C/c1cc(-n2c(=O)cc(C(F)(F)F)n(C)c2=O)c(F)cc1Cl (stereo not drawn) [Compound 241] | 5 (Level 5: growth control rate is above 85%) | 5 (Level 5: growth control rate is above 85%) | 5 (Level 5: growth control rate is above 85%) | 5 (Level 5: growth control rate is above 85%) | 5 (Level 5: growth control rate is above 85%) | 5 (Level 5: growth control rate is above 85%) | – | – | – | – | – | – | –
CCOC(=O)C(C)O/N=C/c1cc(-n2c(=O)n(C)c(=S)n(C)c2=O)c(F)cc1Br (stereo not drawn) [Compound 84] | – | – | – | – | – | – | 5 (Level 5: growth control rate is above 85%) | 4 (Level 4: growth control rate is greater than or equal to 60% and less than 85%) | 4 (Level 4: growth control rate is greater than or equal to 60% and less than 85%) | 5 (Level 5: growth control rate is above 85%) | 5 (Level 5: growth control rate is above 85%) | 5 (Level 5: growth control rate is above 85%) | –
C[C@@H](O/N=C/c1cc(-n2c(=O)cc(C(F)(F)F)n(C)c2=O)c(F)cc1Cl)C(=O)OC1CCCC1 [214(R)] | – | – | – | – | – | – | 5 (Level 5: growth control rate is above 85%) | 5 (Level 5: growth control rate is above 85%) | 5 (Level 5: growth control rate is above 85%) | 5 (Level 5: growth control rate is above 85%) | 5 (Level 5: growth control rate is above 85%) | 5 (Level 5: growth control rate is above 85%) | –
